Experimental data reported in patent US6506788B1, “N-linked urea or carbamate of heterocyclic thioesters for vision and memory disorders” (GPI Nil Holdings, Inc., priority 1998, dated 2003).
Where two headings read alike, the source gives them in different places. Marks after values point to notes of the source that are not given here. Values belong to the molecule of their own block, whether it stands above or below them.

Legend:
[1] = Clearance (Table V comments, no method given); format: in vitro ADME
FKBP12 = FKBP12 (Homo sapiens, UniProt P62942); test: Ki test procedure: inhibition of peptidyl-prolyl isomerase (rotamase) activity, chymotrypsin-coupled assay; format: biochemical
FKBP12, sequence (P62942 whole entry, species assumed): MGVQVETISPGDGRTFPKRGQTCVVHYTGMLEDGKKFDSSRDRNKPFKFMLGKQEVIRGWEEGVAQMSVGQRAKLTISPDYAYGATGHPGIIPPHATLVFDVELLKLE
From the text: The inhibition of the prolyl peptidyl cis-trans isomerase activity of FKBP may be measured as an indicator of this affinity.
Inhibition of the peptidyl-prolyl isomerase (rotamase) activity of the compounds used in the inventive methods and pharmaceutical compositions can be evaluated by known methods described in the literature (Harding et al., Nature, 1989, 341:758-760; Holt et al. J. Am. Chem. Soc., 115:9923-9938).
The cis-trans isomerization of an alanine-proline bond in a model substrate, N-succinyl-Ala-Ala-Pro-Phe-p-nitroanilide, is monitored spectrophotometrically in a chymotrypsin-coupled assay, which releases para-nitroanilide from the trans form of the substrate. The inhibition of this reaction caused by the addition of different concentrations of inhibitor is determined, and the data is analyzed as a change in first-order rate constant as a function of inhibitor concentration to yield the apparent Ki values.
In a plastic cuvette are added […] of ice cold assay buffer (25 mM HEPES, pH 7.8, 100 mM NaCl), 10 mL of FKBP (2.5 mM in 10 mM Tris-Cl pH 7.5, 100 mM NaCl, 1 mM dithiothreitol), 25 mL of chymotrypsin (50 mg/ml in 1 mM HCl) and […] of test compound at various concentrations in dimethyl sulfoxide. The reaction is initiated by the addition of 5 mL of substrate (succinyl-Ala-Phe-Pro-Phe-para-nitroanilide, 5 mg/mL in 2.35 mM LiCl in trifluoroethanol).
The absorbance at 390 nm versus time is monitored for 90 seconds using a spectrophotometer and the rate constants are determined from the absorbance versus time data files.

[2] = system: retinal ganglion cell axons; test: Protection of retinal ganglion cell axons from degeneration following optic nerve transection (Table V); format: in vivo; details: ± SEM
From the text: Efficacy of representative compounds from different immunophilin ligand series in protecting retinal ganglion cell axons from degeneration following optic nerve transection is set forth in Table V.
Efficacy of representative compounds from different immunophilin ligand series in protecting retinal ganglion cell axons from degeneration following optic nerve transection

[3] = system: retinal ganglion cells and optic nerve axons; test: In vivo retinal ganglion cell and optic nerve axon tests: optic nerve transection, 14 or 28 day treatment, sacrifice at 90 days; set-up: species or system Sprague Dawley rats; details: for ON head area (% sham) / ON Axon density / pattern of myelin degeneration, proximal stump (myelin basic protein immunohistochemistry) / pattern of myelin labeling and degenerating myelin figures, distal stump: 90 days after transection; for ON Axon density: RT97 labeled axons in 200 μm × 200 μm region; for increased ON axon density: adjusted for optic nerve diameter; for Distat optic nerve: shrinkage of cross sectional area: cross sectional area compared to sham control
From the text: All eyes and optic nerves stumps were removed.

retinal ganglion cells = test: Example 16: optic nerve transection, 28 days treatment, sacrifice at 90 days; format: in vivo, Sprague Dawley rats; details: 10 mg/kg/day s.c. for 28 days; 90 days after transection
From the text: Transection of the mammalian optic nerve results in a brief period of abortive regeneration, but the majority of axotomized neurons die and the axons from many persisting ganglion cells die back beyond the optic nerve head.

retina = test: Streptozotocin induced diabetes: retinal neovascularization and neuron loss; format: in vivo; details: 28 day treatment beginning 8 weeks after onset of diabetes
[4] = system: retinal ganglion cells and optic nerve; test: Retinal ischemia (intraocular pressure raised above arterial blood pressure), examined 28 days later; format: in vivo, rats; details: toluidine blue staining; 28 days after 1 hour retinal ischemia
From the text: Retinal ganglion cells were retrogradely labeled in adult rats by bilateral injection of fluorogold in their lateral geniculate nuclei. Labeled ganglion cells in the normal rat retina appear as white profiles against the dark background (FIG. 1A). Complete retinal ischemia was produced by infusing normal saline solution into the retinal vitreous cavity of each eye until the intraocular pressure exceeded arterial blood pressure. 28 days after the ischemic episode extensive degeneration of retinal ganglion cell was evidenced by massive reduction in the density of fluorogold labeled cells (FIG. 1B).
Optic nerves from vehicle treated cases examined 28 days after a 1 hour retinal ischemic episode are characterized by a decreased density of optic nerve axons and the appearance of numerous degenerating myelin figures (bright white filled circles).

aged mice = test: Morris watermaze spatial learning and memory in aged rodents; format: in vivo, C57BL/6N-Nia mice; details: 10 mg/kg daily
From the text: The Morris watermaze is widely used for assessing spatial memory formation and retention in experimental animals. The test depends on the animal's ability to utilize spatial visual information in order to locate a submerged escape platform in a water tank. It is important that the tank itself be as devoid of specific visual features as possible—thus, it is always circular in shape, the sides are kept smooth and in uniform dull colors, and the water is rendered opaque with nontoxic watercolor pigment or powdered milk. This is to ensure that the animal navigates only by the use of more distant visual cues, or by the use of intra-maze cues specifically provided by the experimenter. The animals' path, speed, and swim time are tracked with a ceiling camera for later computerized analysis. Over the course of several successive trials, spatial learning can therefore be defined as a drop of distance swum, or time elapsed, from placement in the tank until escape onto the invisible platform. The procedure involved using three-month old (young) and 18-19 month old male C57BL/6N-Nia (aged) mice which habituated to the well known and conventional Morris watermaze during a 4 trials/day, 3-4 day visible platform training phase. […] Swim Distances (cm) were analyzed in a 7×5 ANOVA including Groups and Blocks (1-5) as factors in the analysis, treating Blocks as a repeated measure.

[5] = Table V comments, read-out: Ki rotomase
[6] = apparent Ki, rotamase inhibition, read-out: Ki

Clearance [1]: 63.8 µL/min | Ki (FKBP12; [5]): 7.5 nM
Molecule: 3-(3-pyridyl)-1-propyl (2s)-1-(3,3-dimethyl-1,2-dioxopentyl)-2-pyrrolidinecarboxylate [GPI 1046]
RT97-RGC axon density 11 days after ON transection (36 ON axon rescued) [2]: 60.5% ±3.9 SEM

Ki (FKBP12; [6]): 1 to 50 nM
Molecule: CCC(C)CNC(=O)N1CCC[C@H]1C(=O)SCCCc1cccnc1 (stereo partly drawn) [Compound 1, 3-(3-Pyridyl)-1-propylmercaptyl 2S-1-[(2-methylbutyl)carbamoyl]pyrrolidine-2-carboxylate]

Ki (FKBP12; [6]): 51 to 200 nM
Molecule: CCC(C)(C)NC(=O)N1CCC[C@H]1C(=O)SCCCc1cccnc1 [Compound 2]

Ki (FKBP12; [6]): 51 to 200 nM
Molecule: CCC(C)(C)NC(=O)N1CCCC1C(=O)SCCc1ccccc1 (stereo not shown) [Compound 4]

Ki (FKBP12; [6]): 201 to 500 nM
Molecule: O=C(SCCCc1cccnc1)C1CCCN1C(=O)NC1CCCCC1 (stereo not shown) [Compound 6]

Ki (FKBP12; [6]): 51 to 200 nM
Molecule: O=C(SCCCc1cccnc1)[C@@H]1CCCN1C(=S)NC1CCCCC1 [Compound 7, 3-(3-pyridyl)-1-propylmercaptyl 2S-1-[(cyclohexyl)thiocarbamoyl]-pyrrolidine-2-carboxylate]

Ki (FKBP12; [6]): 51 to 200 nM
Molecule: CCC(C)(C)NC(=O)N1CCCCC1C(=O)SCCCc1ccccc1 (stereo not shown) [Compound 11]

Ki (FKBP12; [6]): 1 to 50 nM
Molecule: O=C(SCCCc1ccccc1)C1CCCCN1C(=O)Nc1ccccc1 (stereo not shown) [Compound 12]

Ki (FKBP12; [6]): 1 to 50 nM
Molecule: O=C(SC(CCc1ccccc1)CCc1ccccc1)C1CCCCN1C(=S)NC1CCCCC1 (stereo not shown) [Compound 15]

Ki (FKBP12; [6]): 51 to 200 nM
Molecule: COc1ccc(CCCSC(=O)C2CCCCN2C(=O)NC2CCCCC2)cc1 (stereo not shown) [Compound 16]

Second part, the molecule before the results:

Molecule: O=C(SCCCc1ccccc1)C1CCCN1C(=O)NC12CC3CC(CC(C3)C1)C2 (stereo not shown) [B]
Ki (FKBP12; [5]): 149 nM | RT97-RGC axon density 11 days after ON transection (36 ON axon rescued) [2]: 100.0% ±5.2% SEM

Molecule: O=C(SCCCc1ccccc1)C1CCCN1S(=O)(=O)Cc1ccccc1 (stereo not shown) [C]
Clearance [1]: 31.1 µL/min | Ki (FKBP12; [5]): 107 nM | RT97-RGC axon density 11 days after ON transection (36 ON axon rescued) [2]: 60.4% ±3.1% SEM

Molecule: O=C(OCCCCc1ccccc1)[C@@H]1CCCCN1S(=O)(=O)Cc1ccccc1 [D]
RT97-RGC axon density 11 days after ON transection (36 ON axon rescued) [2]: 58.4% ±6.4% SEM

Molecule: CCC(C)(C)C(=O)C(=O)N1CCS[C@H]1C(=O)OCCCc1cccnc1 [F]
RT97-RGC axon density 11 days after ON transection (36 ON axon rescued) [2]: 55.1% ±5.9% SEM

Molecule: CCC(C)(C)C(=O)C(=O)N1CCC[C@H]1C(=O)OCCCc1cccnc1 [GPI 1046, 3-(3-pyridyl)-1-propyl (2s)-1-(3,3-dimethyl-1,2-dioxopentyl)-2-pyrrolidinecarboxylate]
ON head area (% sham) ([3]; ONT/14 days treatment): 76% | ON Axon density ([3]; ONT/14 days treatment): 569 | increased ON axon density ([3]; ONT/14 days treatment): 1.5X | Distat optic nerve: shrinkage of cross sectional area ([3]; ONT/14 days treatment): did not protect against shrinkage of the distal stump | Distat optic nerve myclin basic protein Density (myelin level) ([3]; ONT/14 days treatment, cross sectional area multiplied by myelin density): slightly increase the density of myelin | ON head area (% sham) ([3]; ONT/28 days treatment): 95%* | ON Axon density ([3]; ONT/28 days treatment): significant increase | increased ON axon density ([3]; ONT/28 days treatment): 5.0 X | Distat optic nerve: shrinkage of cross sectional area ([3]; ONT/28 days treatment): prevented cross sectional shrinkage | pattern of myelin degeneration, proximal stump (myelin basic protein immunohistochemistry) ([3]; first 14 days treatment): did not alter the pattern of myelin degeneration | pattern of myelin labeling and degenerating myelin figures, distal stump ([3]; first 14 days treatment): density of degenerating myelin figures remained high | pattern of myelin degeneration, proximal stump (myelin basic protein immunohistochemistry) ([3]; first 28 days treatment): dramatic preservation of the fascicular staining pattern | pattern of myelin labeling and degenerating myelin figures, distal stump ([3]; first 28 days treatment): dramatic protection of the fascicular pattern of myelin labeling | preservation of axons in the proximal stump (RT97 neurofilament) (retinal ganglion cells): preserved the axons of virtually all protected neurons | neuronal loss in the ONL (retina): did not appear to protect against neuronal loss | loss of neurons in the INL and GCL (retina; vs streptozotocin/vehicle controls): appeared to decrease the loss of neurons | density of degenerating myelin figures in optic nerve [4]: dramatically decreased | difference between young and aged impaired treated groups during retention phase (aged mice; F1.69=3.09, P=0.08): no longer any statistically significant difference | spatial memory performance (swim distance, retention testing) (aged mice; aged impaired mice, retention testing after 3 weeks of dosing): significantly enhanced spatial memory performance

Molecule: CCC(C)(C)C(=O)C(=O)N1CCCC[C@H]1C(=O)O [G]
RT97-RGC axon density 11 days after ON transection (36 ON axon rescued) [2]: 34.0% ±4.8% SEM

Molecule: CCC(C)(C)C(=O)C(=O)N1CCCC[C@H]1C(N)=O [H]
RT97-RGC axon density 11 days after ON transection (36 ON axon rescued) [2]: 30.3% ±8.0% SEM

Molecule: O=C(OCCCc1cccnc1)[C@@H]1CCCN1C(=S)NC1CCCCC1 [I]
RT97-RGC axon density 11 days after ON transection (36 ON axon rescued) [2]: 23.8% ±5.3 SEM

Molecule: CCC(C)(C)C(=O)C(=O)N1CCC[C@H]1C(=O)CCCCc1cccnc1 [J]
RT97-RGC axon density 11 days after ON transection (36 ON axon rescued) [2]: 15.8% ±4.8% SEM

Molecule: CCC(C)(C)C(=O)C(=O)N1CCCC[C@H]1C(=O)SCCC(c1ccccc1)c1ccccc1 [K]
RT97-RGC axon density 11 days after ON transection (36 ON axon rescued) [2]: 13.0% ±4.2% SEM

Molecule: CCC(C)(C)C(=O)C(=O)N1CCCC1C(=O)O (stereo not shown) [L]
Clearance [1]: 5.2 µL/min | RT97-RGC axon density 11 days after ON transection (36 ON axon rescued) [2]: 7.8% ±3.0% SEM

Molecule: CCC(C)(C)C(=O)C(=O)N1CCC[C@H]1C(=O)SCCC(c1ccccc1)c1ccccc1 [M]
RT97-RGC axon density 11 days after ON transection (36 ON axon rescued) [2]: −6.3% +3.9% SEM
